What all share (assay type): cell-based
Assay [1] deals with T1, EGFR exon 20 ASV Ins V769_D770 (Ba/F3 cells) (Homo sapiens, UniProt P00533, INS769ASV).
T1 construct: expressed in transfected cells; host or cells: Ba/F3 (murine pro-B cells), retroviral transduction, puromycin selection, IL3-independent pool
Put plainly: Inhibitor activity on EGFR-dependent cell growth (CellTiter-Glo, 72 h), Ba/F3 EGFR exon 20 ASV Ins. The conditions noted are these: read-out: BaF3 ASV IC50. The source says:
(§1) Example A. Inhibitor Activity on EGFR-Dependent Cell Growth
(§2) Cell lines are generated by transducing Ba/F3 cells with retroviruses containing vectors with EGFR WT, EGFR L858R, EGFR exon 19del, EGFR L858R/C797S, EGFR exon 20 NPG Ins D770_N771, EGFR exon 20 ASV Ins V769_D770, EGFR exon 20 SVD Ins D770_N771, or EGFR exon 20 FQEA Ins A763_V764 genes and a puromycin selection marker. Transduced cells are selected with puromycin for 7 days and are then be transferred into culture media without Interleukin 3 (IL3). EGFR WT cells are maintained with supplemental EGF. Surviving cells are confirmed to express EGFR by Western blot and maintained as a pool. The IC50 date were included in Table 6 and Table 7.
(§3) 1.1 Cells are harvested from flask into cell culture medium and the cell number counted.
(§4) 1.2 Cells are diluted with culture medium to the desired density and 40 μL of cell suspension is added into each well of 384-well cell culture plate and the seeding density is 800 (FQEA, exon 19del), 600 (WT, NPG, L858R/C797S), or 400 (ASV, SVD, L858R) cells/well.
(§5) 2 Compound Preparation and Treatment
(§6) 2.1 Test compounds are dissolved to 10 mM in a DMSO stock solution. 45 μL of stock solution is transferred to a 384 polypropylene plate (pp-plate). Perform 3-fold, 10-point dilution via transferring 15 μL compound into 30 μL DMSO using a TECAN (EVO200) liquid handler.
(§7) 2.2 Spin plates at room temperature at 1,000 RPM for 1 minute.
(§8) 2.3 Transfer 120 nL of diluted compound from compound source plate into the cell plate.
(§9) 2.4 After compound treatment for 72 hours, perform CTG detection for compound treatment plates as described in “Detection” section.
(§10) 3.1 Plates are removed from incubators and equilibrated at room temperature for 15 minutes.
(§11) 3.2 Thaw the CellTiter Glo reagents and allow to equilibrate to room temperature before the experiment.
(§12) 3.3 Add 40 μL of CellTiter-Glo reagent into each well (at 1:1 to culture medium). Then place the plates at room temperature for 30 min followed by reading on EnVision.
(§13) 4.1 Inhibition activity is calculated following the formula below:
(§14) % Inhibition=100×(LumHC−LumSample)/(LumHC−LumLC) • where HC is obtained from cells treated with 0.1% DMSO only; and LC is obtained from culture medium only.
(§15) 4.2 2. Calculate the IC50 by fitting the Curve using Xlfit (v5.3.1.3), equation 201.
(§16) Y=Bottom+(Top−Bottom)/(1+10^((Log IC50−X)*HillSlope))
A general note: Cellular ATP, detected with luciferase, serves as a proxy for viable cell number.

The target in assay [2] is T2, EGFR exon 20 FQEA Ins A763_V764 (Ba/F3 cells) (Homo sapiens, UniProt P00533, INS763FQEA).
T2 construct: expressed in transfected cells; host or cells: Ba/F3 (murine pro-B cells), retroviral transduction, puromycin selection, IL3-independent pool
Put plainly: Inhibitor activity on EGFR-dependent cell growth (CellTiter-Glo, 72 h), Ba/F3 EGFR exon 20 FQEA Ins. To be noted: read-out: BaF3 FQEA IC50.
Source text: as §1, §2, §3, §4, §5, §6, §7, §8, §9, §10, §11, §12, §13, §14, §15, §16

Assay [3] deals with T3, EGFR exon 20 SVD Ins D770_N771 (Ba/F3 cells) (Homo sapiens, UniProt P00533, INS770SVD).
T3 construct: expressed in transfected cells; host or cells: Ba/F3 (murine pro-B cells), retroviral transduction, puromycin selection, IL3-independent pool
The assay is described as follows: Inhibitor activity on EGFR-dependent cell growth (CellTiter-Glo, 72 h), Ba/F3 EGFR exon 20 SVD Ins. The conditions noted are these: read-out: BaF3 SVD IC50.
Source text: as §1, §2, §3, §4, §5, §6, §7, §8, §9, §10, §11, §12, §13, §14, §15, §16

The next assay addresses T4, EGFR WT (Ba/F3 cells) (Homo sapiens, UniProt P00533).
T4 construct: expressed in transfected cells; host or cells: Ba/F3 (murine pro-B cells), retroviral transduction, puromycin selection, maintained with EGF
Put plainly: Inhibitor activity on EGFR-dependent cell growth (CellTiter-Glo, 72 h), Ba/F3 EGFR WT. The conditions noted are these: read-out: BaF3 WT IC50.
Source text: as §1, §2, §3, §4, §5, §6, §7, §8, §9, §10, §11, §12, §13, §14, §15, §16

The results in this text go back to US20240101576A1, “HETEROCYCLIC INHIBITORS OF EGFR AND/OR HER2, FOR USE IN THE TREATMENT OF CANCER” (Scorpion Therapeutics, Inc., priority 2020, published 2024).

T4 sequence (P00533 25-1210): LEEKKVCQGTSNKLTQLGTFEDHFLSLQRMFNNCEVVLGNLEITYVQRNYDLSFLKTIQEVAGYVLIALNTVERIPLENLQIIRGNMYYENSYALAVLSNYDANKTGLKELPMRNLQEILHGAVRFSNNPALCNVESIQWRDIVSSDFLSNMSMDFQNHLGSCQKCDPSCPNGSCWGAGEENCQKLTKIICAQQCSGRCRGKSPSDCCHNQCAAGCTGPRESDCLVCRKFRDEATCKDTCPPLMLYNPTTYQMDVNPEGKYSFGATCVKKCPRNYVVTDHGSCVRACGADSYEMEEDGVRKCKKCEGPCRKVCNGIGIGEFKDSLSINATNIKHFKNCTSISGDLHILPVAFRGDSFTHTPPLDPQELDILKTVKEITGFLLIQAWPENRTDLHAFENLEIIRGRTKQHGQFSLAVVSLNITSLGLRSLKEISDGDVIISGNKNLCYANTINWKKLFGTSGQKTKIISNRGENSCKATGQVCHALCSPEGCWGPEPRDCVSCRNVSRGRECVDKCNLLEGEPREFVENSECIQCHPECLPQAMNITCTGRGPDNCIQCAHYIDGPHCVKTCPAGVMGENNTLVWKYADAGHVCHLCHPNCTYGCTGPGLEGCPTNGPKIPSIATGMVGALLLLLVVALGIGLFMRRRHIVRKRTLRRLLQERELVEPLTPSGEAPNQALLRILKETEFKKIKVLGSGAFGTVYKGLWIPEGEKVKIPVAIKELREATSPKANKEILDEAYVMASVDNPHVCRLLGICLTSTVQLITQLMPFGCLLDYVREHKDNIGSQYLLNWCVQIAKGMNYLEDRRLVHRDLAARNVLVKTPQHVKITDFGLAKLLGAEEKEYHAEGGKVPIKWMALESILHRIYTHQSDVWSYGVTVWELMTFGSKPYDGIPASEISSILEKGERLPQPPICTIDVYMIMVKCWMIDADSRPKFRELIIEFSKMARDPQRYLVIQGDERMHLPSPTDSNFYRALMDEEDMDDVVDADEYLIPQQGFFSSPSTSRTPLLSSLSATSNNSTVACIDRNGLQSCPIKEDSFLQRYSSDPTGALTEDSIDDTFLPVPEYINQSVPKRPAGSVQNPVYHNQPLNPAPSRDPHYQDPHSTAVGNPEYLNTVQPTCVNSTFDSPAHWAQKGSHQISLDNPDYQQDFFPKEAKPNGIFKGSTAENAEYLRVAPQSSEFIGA
T1 sequence (P00533 with tags, fused parts or gaps INS769ASV): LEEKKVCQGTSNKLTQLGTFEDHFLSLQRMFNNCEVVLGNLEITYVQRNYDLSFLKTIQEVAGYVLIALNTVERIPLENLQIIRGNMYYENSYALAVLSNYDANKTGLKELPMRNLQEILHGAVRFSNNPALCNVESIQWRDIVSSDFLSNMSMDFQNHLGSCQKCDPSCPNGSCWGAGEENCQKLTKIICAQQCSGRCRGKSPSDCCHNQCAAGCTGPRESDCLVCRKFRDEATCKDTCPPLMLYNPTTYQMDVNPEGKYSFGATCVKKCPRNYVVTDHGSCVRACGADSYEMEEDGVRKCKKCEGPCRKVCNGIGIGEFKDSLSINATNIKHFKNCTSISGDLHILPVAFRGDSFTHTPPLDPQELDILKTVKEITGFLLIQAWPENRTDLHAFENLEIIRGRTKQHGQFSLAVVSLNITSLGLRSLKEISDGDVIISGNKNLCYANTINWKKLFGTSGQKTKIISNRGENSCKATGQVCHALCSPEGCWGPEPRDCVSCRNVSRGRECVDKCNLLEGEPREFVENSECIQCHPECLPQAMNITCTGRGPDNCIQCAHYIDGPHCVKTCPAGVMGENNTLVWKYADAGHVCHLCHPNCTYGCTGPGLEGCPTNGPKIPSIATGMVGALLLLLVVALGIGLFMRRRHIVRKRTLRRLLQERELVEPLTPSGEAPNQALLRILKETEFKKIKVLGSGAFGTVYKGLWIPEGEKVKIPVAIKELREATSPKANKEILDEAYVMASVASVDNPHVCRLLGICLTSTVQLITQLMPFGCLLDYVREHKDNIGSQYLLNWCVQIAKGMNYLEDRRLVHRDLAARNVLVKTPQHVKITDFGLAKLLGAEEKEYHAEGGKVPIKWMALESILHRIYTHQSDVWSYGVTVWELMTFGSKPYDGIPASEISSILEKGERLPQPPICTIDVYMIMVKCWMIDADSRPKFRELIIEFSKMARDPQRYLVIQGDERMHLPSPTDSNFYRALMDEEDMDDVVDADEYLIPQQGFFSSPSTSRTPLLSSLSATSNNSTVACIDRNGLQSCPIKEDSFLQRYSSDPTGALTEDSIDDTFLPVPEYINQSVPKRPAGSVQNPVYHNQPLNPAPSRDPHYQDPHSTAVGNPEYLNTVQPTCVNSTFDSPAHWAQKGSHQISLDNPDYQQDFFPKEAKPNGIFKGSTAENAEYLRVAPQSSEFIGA
T2 sequence (P00533 with tags, fused parts or gaps INS763FQEA): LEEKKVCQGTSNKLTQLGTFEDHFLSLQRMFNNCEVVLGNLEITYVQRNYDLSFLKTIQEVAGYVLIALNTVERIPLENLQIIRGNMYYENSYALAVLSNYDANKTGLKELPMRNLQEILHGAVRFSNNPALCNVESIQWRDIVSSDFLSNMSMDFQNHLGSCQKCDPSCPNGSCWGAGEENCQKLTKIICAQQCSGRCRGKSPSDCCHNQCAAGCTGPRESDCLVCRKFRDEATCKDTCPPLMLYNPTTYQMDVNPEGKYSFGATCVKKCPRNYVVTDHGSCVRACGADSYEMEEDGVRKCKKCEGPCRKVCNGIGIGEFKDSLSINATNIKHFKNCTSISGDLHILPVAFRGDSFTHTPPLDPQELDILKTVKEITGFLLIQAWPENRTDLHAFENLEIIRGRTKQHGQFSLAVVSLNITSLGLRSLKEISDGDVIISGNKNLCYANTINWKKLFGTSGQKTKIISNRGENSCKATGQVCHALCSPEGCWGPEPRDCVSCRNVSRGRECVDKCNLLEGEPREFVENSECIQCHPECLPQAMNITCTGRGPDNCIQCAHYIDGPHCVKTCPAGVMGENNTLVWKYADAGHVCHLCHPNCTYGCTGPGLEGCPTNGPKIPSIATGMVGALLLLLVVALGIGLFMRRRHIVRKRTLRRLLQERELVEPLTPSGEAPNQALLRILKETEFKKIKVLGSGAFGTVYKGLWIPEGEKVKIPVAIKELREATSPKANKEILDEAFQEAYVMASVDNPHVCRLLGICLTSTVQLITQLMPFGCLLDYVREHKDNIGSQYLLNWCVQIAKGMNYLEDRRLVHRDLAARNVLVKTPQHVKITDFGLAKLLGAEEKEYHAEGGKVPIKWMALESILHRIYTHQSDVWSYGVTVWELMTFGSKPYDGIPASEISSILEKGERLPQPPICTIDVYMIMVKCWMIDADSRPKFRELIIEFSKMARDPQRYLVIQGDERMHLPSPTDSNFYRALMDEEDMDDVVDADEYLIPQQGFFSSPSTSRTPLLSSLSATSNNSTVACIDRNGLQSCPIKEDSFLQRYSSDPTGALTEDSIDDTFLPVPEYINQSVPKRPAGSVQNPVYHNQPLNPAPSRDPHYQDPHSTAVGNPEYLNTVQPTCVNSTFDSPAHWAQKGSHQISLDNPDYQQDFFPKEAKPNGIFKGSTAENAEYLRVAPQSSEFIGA
T3 sequence (P00533 with tags, fused parts or gaps INS770SVD): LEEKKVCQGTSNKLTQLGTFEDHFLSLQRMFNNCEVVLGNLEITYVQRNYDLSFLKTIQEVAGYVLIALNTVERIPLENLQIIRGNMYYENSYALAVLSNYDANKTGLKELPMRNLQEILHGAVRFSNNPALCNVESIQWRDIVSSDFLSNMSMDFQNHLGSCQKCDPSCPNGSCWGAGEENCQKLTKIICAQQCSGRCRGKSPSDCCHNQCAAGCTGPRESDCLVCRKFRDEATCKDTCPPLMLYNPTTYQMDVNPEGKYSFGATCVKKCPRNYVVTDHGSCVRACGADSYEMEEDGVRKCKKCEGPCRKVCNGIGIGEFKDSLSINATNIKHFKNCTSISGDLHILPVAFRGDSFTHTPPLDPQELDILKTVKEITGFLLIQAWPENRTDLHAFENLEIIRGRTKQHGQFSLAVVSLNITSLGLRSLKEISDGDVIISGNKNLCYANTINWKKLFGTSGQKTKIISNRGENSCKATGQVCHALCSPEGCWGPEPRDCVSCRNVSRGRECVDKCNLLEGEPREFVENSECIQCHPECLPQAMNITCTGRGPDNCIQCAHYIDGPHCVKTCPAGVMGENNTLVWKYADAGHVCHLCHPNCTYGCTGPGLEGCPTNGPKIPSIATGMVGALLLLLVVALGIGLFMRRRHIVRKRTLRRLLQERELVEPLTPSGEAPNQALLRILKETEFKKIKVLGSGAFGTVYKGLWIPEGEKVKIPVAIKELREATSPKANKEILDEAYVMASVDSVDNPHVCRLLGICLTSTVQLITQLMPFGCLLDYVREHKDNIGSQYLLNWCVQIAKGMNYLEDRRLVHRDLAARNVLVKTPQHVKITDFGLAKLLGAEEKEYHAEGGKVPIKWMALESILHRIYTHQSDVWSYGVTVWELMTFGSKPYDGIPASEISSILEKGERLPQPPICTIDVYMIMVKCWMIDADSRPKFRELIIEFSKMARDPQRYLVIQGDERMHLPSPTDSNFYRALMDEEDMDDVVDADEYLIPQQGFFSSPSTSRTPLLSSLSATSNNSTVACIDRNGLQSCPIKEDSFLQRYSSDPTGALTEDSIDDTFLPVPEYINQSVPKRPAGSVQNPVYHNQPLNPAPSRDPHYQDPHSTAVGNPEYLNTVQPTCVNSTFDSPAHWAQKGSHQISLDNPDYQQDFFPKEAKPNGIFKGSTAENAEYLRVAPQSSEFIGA

What is called IC50 is the concentration at which inhibition is half-maximal. Take `COc1c(Cl)cccc1Nc1c(-c2ccnc3ccc(OCC4(F)CC4)nc23)[nH]c2c1C(=O)NCC2` [compound 759, 3-[(3-chloro-2-methoxyphenyl)amino]-2-[6-[(1-fluorocyclopropyl)methoxy]-1,5-naphthyridin-4-yl]-1H,5H,6H,7H-pyrrolo[3,2-c]pyridin-4-one]: the 50% inhibitory concentration (IC50) is under 100 nM in assay [1], under 100 nM in assay [2], under 100 nM in assay [3] and 100 to 1000 nM on EGFR WT (Ba/F3 cells).

In the case of `COc1c(Cl)cccc1Nc1c(-c2ccnc(C(F)(F)F)n2)[nH]c2c1C(=O)NCC2` [compound 476, 3-[(3-chloro-2-methoxyphenyl)amino]-2-[2-(trifluoromethyl)pyrimidin-4-yl]-1H,5H,6H,7H-pyrrolo[3,2-c]pyridin-4-one], the half-maximal inhibitory concentration (IC50) (in assay [1]; in assay [2]; in assay [3]; on EGFR WT (Ba/F3 cells)) was over 1000 nM in each case.

With `COCC[C@H]1CNC(=O)c2c1[nH]c(-c1ccncc1F)c2Nc1cccc(F)c1OC(F)F` [Compound 471, (7S)-3-{[2-(difluoromethoxy)-3-fluorophenyl]amino}-2-(3-fluoropyridin-4-yl)-7-(2-methoxyethyl)-1H,5H,6H,7H-pyrrolo[3,2-c]pyridin-4-one], the half-maximal inhibitory concentration (IC50) in assay [1] was 100 to 1000 nM; in assay [2] it was 100 to 1000 nM; in assay [3], 100 to 1000 nM; on EGFR WT (Ba/F3 cells) it was over 1000 nM.

For `COc1c(Cl)cccc1Nc1c(-c2ccnc3ccc(OCCN4CCOCC4)nc23)[nH]c2c1C(=O)NCC2` [compound 504, 3-[(3-chloro-2-methoxyphenyl)amino]-2-{6-[2-(morpholin-4-yl)ethoxy]-1,5-naphthyridin-4-yl}-1H,5H,6H,7H-pyrrolo[3,2-c] pyridin-4-one], the IC50 in assay [1] is under 100 nM; in assay [2], 100 to 1000 nM; in assay [3], under 100 nM; at EGFR WT (Ba/F3 cells) it was 100 to 1000 nM.

Consider `COc1ncc2nccc(-c3[nH]c4c(c3Nc3cccc(Cl)c3)C(=O)NCC4)c2n1` [Compound 798, 3-[(3-chlorophenyl)amino]-2-[2-methoxypyrido[3,2-d]pyrimidin-8-yl]-1H,5H,6H,7H-pyrrolo[3,2-c]pyridin-4-one], for which the IC50 in assay [1] was under 100 nM; in assay [2], under 100 nM; in assay [3], under 100 nM; on EGFR WT (Ba/F3 cells) it was 100 to 1000 nM.

With `COc1c(Cl)cccc1Nc1c(-c2ccnc(C(F)F)n2)[nH]c2c1C(=O)NCC2` [compound 472, 3-[(3-chloro-2-methoxyphenyl)amino]-2-[2-(difluoromethyl)pyrimidin-4-yl]-1H,5H,6H,7H-pyrrolo[3,2-c]pyridin-4-one], the IC50 in assay [1] is 100 to 1000 nM; in assay [2] it was over 1000 nM; in assay [3], 100 to 1000 nM; at EGFR WT (Ba/F3 cells), over 1000 nM.

As for `COCC[C@@H]1CNC(=O)c2c1[nH]c(-c1ccncc1F)c2Nc1cccc(F)c1OC(F)F` [Compound 470, (7R)-3-{[2-(difluoromethoxy)-3-fluorophenyl]amino}-2-(3-fluoropyridin-4-yl)-7-(2-methoxyethyl)-1H,5H,6H,7H-pyrrolo[3,2-c]pyridin-4-one], the IC50 in assay [1] was under 100 nM; in assay [2] it was 100 to 1000 nM; in assay [3], under 100 nM; at EGFR WT (Ba/F3 cells), 100 to 1000 nM.

`COCC[C@H]1CNC(=O)c2c1[nH]c(-c1ccncc1F)c2Nc1cccc(F)c1C` [compound 824]: the IC50 in assay [1] was 100 to 1000 nM; in assay [2], 100 to 1000 nM; in assay [3], 100 to 1000 nM; on EGFR WT (Ba/F3 cells), over 1000 nM.

With `COc1c(Cl)cccc1Nc1c(-c2ccnc3ccc(C4CC4)nc23)[nH]c2c1C(=O)NCC2` [compound 752, 3-[(3-chloro-2-methoxyphenyl)amino]-2-(6-cyclopropyl-1,5-naphthyridin-4-yl)-1H,5H,6H,7H-pyrrolo[3,2-c]pyridin-4-one], the IC50 (in assay [1]; in assay [2]; in assay [3]; at EGFR WT (Ba/F3 cells)) was under 100 nM each time.

In the case of `COc1c(Cl)cccc1Nc1c(-c2ccnc(NC3CCOCC3)n2)[nH]c2c1C(=O)NCC2` [compound 708, 3-((3-chloro-2-methoxyphenyl)amino)-2-(2-((tetrahydro-2H-pyran-4-yl)amino)pyrimidin-4-yl)-1,5,6,7-tetrahydro-4H-pyrrolo[3,2-c]pyridin-4-one], the concentration for half-maximal inhibition (IC50) (in assay [1]; in assay [2]; in assay [3]; at EGFR WT (Ba/F3 cells)) was over 1000 nM each time.

Take `COc1ccc2nccc(-c3[nH]c4c(c3Nc3cccc(Cl)c3OC)C(=O)NCC43CCC3)c2n1` [Compound 760, 3′-((3-chloro-2-methoxyphenyl)amino)-2′-(6-methoxy-1,5-naphthyridin-4-yl)-5′,6′-dihydrospiro[cyclobutane-1,7′-pyrrolo[3,2-c]pyridin]-4′(1′H)-one]: the IC50 (in assay [1]; in assay [2]; in assay [3]; at EGFR WT (Ba/F3 cells)) was under 100 nM throughout.

Take `COc1c(F)cccc1Nc1c(-c2ccnc3cc(F)cnc23)[nH]c2c1C(=O)NCC2` [Compound 825, 2-(7-fluoro-1,5-naphthyridin-4-yl)-3-[(3-fluoro-2-methoxyphenyl)amino]-1H,5H,6H,7H-pyrrolo[3,2-c]pyridin-4-one]: the IC50 was 100 to 1000 nM in assay [1], 100 to 1000 nM in assay [2], under 100 nM in assay [3] and over 1000 nM at EGFR WT (Ba/F3 cells).

In the case of `COc1c(Cl)cccc1Nc1c(-c2ccnc3[nH]c(=O)c(OC)nc23)[nH]c2c1C(=O)NCC2` [compound 729, 8-(3-((3-chloro-2-methoxyphenyl)amino)-4-oxo-4,5,6,7-tetrahydro-1H-pyrrolo[3,2-c]pyridin-2-yl)-2-methoxypyrido[2,3-b]pyrazin-3 (4H)-one], the half-maximal inhibitory concentration (IC50) in assay [1] is 100 to 1000 nM; in assay [2], 100 to 1000 nM; in assay [3] it was under 100 nM; at EGFR WT (Ba/F3 cells), 100 to 1000 nM.

As for `COc1c(F)cccc1Nc1c(-c2ccncc2)[nH]c2c1C(=O)NCC2` [compound 243], the IC50 was 100 to 1000 nM in assay [1], 100 to 1000 nM in assay [2], 100 to 1000 nM in assay [3] and over 1000 nM at EGFR WT (Ba/F3 cells).

For the molecule `COc1c(F)cccc1Nc1c(-c2ccnc(-c3cnn(C)c3)c2)[nH]c2c1C(=O)NCC2` [compound 259], the IC50 (in assay [1]; in assay [2]; in assay [3]; on EGFR WT (Ba/F3 cells)) was over 1000 nM each time.

Turning to `COc1ncc2nccc(-c3[nH]c4c(c3Nc3cccc(Cl)c3Cl)C(=O)NCC4)c2n1` [Compound 803, 3-[(2,3-dichlorophenyl)amino]-2-[2-methoxypyrido[3,2-d]pyrimidin-8-yl]-1H,5H,6H,7H-pyrrolo[3,2-c]pyridin-4-one], the half-inhibitory concentration (IC50) in assay [1] was under 100 nM; in assay [2], under 100 nM; in assay [3] it was under 100 nM; at EGFR WT (Ba/F3 cells) it was 100 to 1000 nM.

Consider `COc1c(Cl)cccc1Nc1c(-c2ccnc3ccc(OCC4CC4)nc23)[nH]c2c1C(=O)NCC2` [compound 755, 3-[(3-chloro-2-methoxyphenyl)amino]-2-[6-(cyclopropylmethoxy)-1,5-naphthyridin-4-yl]-1H,5H,6H,7H-pyrrolo[3,2-c]pyridin-4-one], for which the half-inhibitory concentration (IC50) in assay [1] was under 100 nM; in assay [2] it was under 100 nM; in assay [3] it was under 100 nM; on EGFR WT (Ba/F3 cells), 100 to 1000 nM.

Take `COc1c(Cl)cccc1Nc1c(-c2ccnc3ccc(OCCCN4CCOCC4)nc23)[nH]c2c1C(=O)NCC2` [compound 503, 3-[(3-chloro-2-methoxyphenyl)amino]-2-{6-[3-(morpholin-4-yl)propoxy]-1,5-naphthyridin-4-yl}-1H,5H,6H,7H-pyrrolo[3,2-c] pyridin-4-one]: the IC50 in assay [1] was under 100 nM; in assay [2] it was under 100 nM; in assay [3], under 100 nM; on EGFR WT (Ba/F3 cells), 100 to 1000 nM.
